Test results taken from ChEMBL document CHEMBL1148032, “Hexaprenoid hydroquinones, novel inhibitors of the reverse transcriptase of human immunodeficiency virus type 1” (J Nat Prod, 1993).

Experiments:
[1] = target: T1, Human immunodeficiency virus type 1 reverse transcriptase (Human immunodeficiency virus 1, UniProt Q72547); experiment: (§1) Inhibition of RNA dependent DNA polymerase activity of HIV1 BH10 recombinant reverse transcriptase p66/p51 assessed as residual enzyme activity by poly(rA)n.oligo(dT)12-18-directed incorporation of [3H]dTTP
[2] = target: Human immunodeficiency virus type 1 reverse transcriptase (Human immunodeficiency virus 1) (UniProt Q72547); experiment: as §1
[3] = target: T1, Human immunodeficiency virus type 1 reverse transcriptase; experiment: (§2) Inhibition of DNA dependent DNA polymerase activity of HIV1 BH10 recombinant reverse transcriptase p66/p51 assessed as residual enzyme activity
[4] = target: Human immunodeficiency virus type 1 reverse transcriptase (Human immunodeficiency virus 1) (UniProt Q72547); experiment: as §2
[5] = target: T1, Human immunodeficiency virus type 1 reverse transcriptase; experiment: Inhibition of RNase H activity of HIV1 BH10 recombinant reverse transcriptase p66/p51 assessed as residual enzyme activity […]

Row | SMILES | IC50 [1] [µM] | Inhibition [2] [µM] | IC50 [3] [µM] | Inhibition [4] [µM] | IC50 [5] [µM]
1 | C[C@@H]1CC=C2[C@@H](CCC[C@@]2(C)CC[C@@]2(C)C3=CCCC(C)(C)[C@H]3CC[C@@H]2C)[C@]1(C)Cc1cc(OS(=O)(=O)O)ccc1OS(=O)(=O)O [TOXIUSOL SODIUM] | 1.5 | 4.6 | 6.6 | 41.6 | > 250
2 | CC1=C(Cc2cc(OS(=O)(=O)O)ccc2OS(=O)(=O)O)[C@]2(C)CCC[C@@](C)(CC[C@@]3(O)[C@H](C)CC[C@@H]4OC(C)(C)CCC[C@@]43C)[C@H]2CC1 [SHAAGROCKOL C] | 3.3 | 9.3 | 0.8 | 5 | > 250
3 | CC1(C)CCC[C@]2(C)OC3CC[C@](C)(C4CC[C@]5(C)C4CC[C@]4(C)C6=C(CC54)C(=O)C=CC6=O)[C@]3(C)CCC12 (stereo not given in full) | 13.2 | 28.6 | 4.5 | 54.5 | > 250
4 | C[C@@H]1CC=C2[C@@H](CCC[C@@]2(C)CC[C@@]2(C)C3=CCCC(C)(C)[C@H]3CC[C@@H]2C)[C@]1(C)Cc1cc(O)ccc1O | 2.8 | 11.1 | 4.2 | 44.4 | > 250
5 | CC(=O)CC[C@@H]1[C@](C)(CC[C@@]2(O)[C@H](C)CC[C@@H]3OC(C)(C)CCC[C@@]32C)CCC[C@@]1(C)C(=O)Cc1cc(OS(=O)(=O)O)ccc1OS(=O)(=O)O [SHAAGROCKOL B] | 8.5 | 21.2 | 6.7 | 40 | > 250
6 | CC1(C)CCC[C@]2(C)OC3CC[C@](C)(C4CC[C@]5(C)C4CC[C@]4(C)c6c(O)ccc(O)c6CC54)[C@]3(C)CCC12 (stereo not given in full) [TOXICOL B] | 3.7 | 11.1 | 8.2 | 56.2 | > 250
7 | CC1(C)CCC[C@]2(C)OC3CC[C@](C)(C4CC[C@]5(C)C4CC[C@]4(C)c6c(OS(=O)(=O)O)ccc(OS(=O)(=O)O)c6CC54)[C@]3(C)CCC12 (stereo not given in full) [TOXICOL A] | 3.1 | 6.5 | 2.7 | 5.2 | > 250
8 | CC1=C(Cc2cc(O)ccc2O)[C@]2(C)CCC[C@@](C)(CC[C@@]3(O)[C@H](C)CC[C@@H]4OC(C)(C)CCC[C@@]43C)[C@H]2CC1 | 2.5 | 18.1 | 1.4 | 14.7 | > 250
